Results on five substances are retold here after patent US20160331662A1, “Compositions that Inhibit and Prevent the Formation of Dental Caries and Methods of Using the Same” (priority 2014, published 2016).

One assay relates to AgI/II VheI (S. mutans). Put plainly: SPR binding of SRCR peptide to immobilized surface protein (Example 3). How it is done:
(§1) Binding of the SRCR peptide […] (SEQ ID NO: 10) to immobilized bacterial surface proteins was determined using procedures as described in Example 1.
(§2) The interaction of the SRCR peptide […] (SEQ ID NO:10) with immobilized bacterial surface proteins AgI/II, SspB and GbpC as examined by surface plasmon resonance studies are shown in FIGS. 27A, 27B and 27C respectively, and binding affinities determined from these studies are listed in Table 8.

The subject of the next assay is GbpC (S. mutans). The assay is described as above. How it is done:
as §1, §2

The subject of a further assay is SspB VheI (S. gordonii). The description is as above. How it is done: as §1, §2
Assay [1] has as its target T1, iSRCR123 (Deglycosylated) (Homo sapiens, UniProt Q9UGM3).
T1 construct: multiple SRCR domains have better adherence capability compared to that of a single SRCR domain; made in house; host or cells: Drosophila expression system
Put plainly: SPR binding of analytes to on-chip deglycosylated iSRCR123. Conditions: ligand iSRCR123 (Deglycosylated). Here is the method:
(§3) Real time binding analyses of the SRCR domains with AgI/II fragments were carried out using the BIAcore 2000 system. […] Self association of iSRCR1 or iSRCR123 (at 2 μM) were also determined in a similar manner as described above. Finally to determine the effect of calcium SPR analysis was carried out by dialyzing the analytes and ligands in binding buffer devoid of CaCl2.
(§4) On-chip Deglycosylation of the iSRCR1 and iSRCR123 was carried out after immobilizing them on CM5 sensor chip. Enzymatic deglycosylation was done to remove N- and O-linked carbohydrates from iSRCR1 and iSRCR123. Briefly, after immobilization of iSRCR1 and iSRCR123, deglycosylation was carried out at native conditions by incubating the entire chip surface externally with a cocktail containing a total reaction volume of 40 μl made up of 4 μl of 10×G7reaction buffer, 4 μl of 10% NP40, 4 μl of Neuraminidase (Sigma), 18 μl water and 10 μl of O-glycosidase (New England Biolabs, Inc.,) and similarly following manufacturers protocols for EndoH (New England Biolabs, Inc). Later, the chip was sealed and incubated overnight at 37° C. Subsequently the chip was thoroughly washed with binding buffer (20 mM HEPES, 150 mM NaCl, 2.5 mM CaCl2) to remove the deglycosylating enzymes and other remnants. Binding studies with FL^AgI/II and FL^SspB and subfragments were then carried out as described above and regenerated as described in Table 2.
(§5) In addition, the SRCR holding two distinct surfaces compounded the elucidation of individual kinetics, and presently there are no modeling protocols available to determine the individual affinities for such a system, therefore for simplicity we have utilized a single site 1:1 Langmuir model. All experiments were carried out in triplicates and the kinetics of the association (KA) and dissociation (KD) rate constants were deduced using the 1:1 Langmuir Kinetic model on the BIA-Evaluation software. The concentration (C in μM) of analyte (FL^AgI/II or FL^SspB at 2 μM) that adhered to the immobilized ligand (iSRCR1, iSRCR123) within the flow cell was calculated using the formula C=(RU/MW)×(1/V), where RU is resonance unit (1 RU=1 pg of bound protein), MW is molecular weight of analyte and V is volume of flow cell (1.2×10^−10 L).
(In general: In SPR one partner is held on a chip, and binding of the other changes the refractive index at the surface.)

The target in assay [2] is T2, iSRCR1 (Homo sapiens, UniProt Q9UGM3).
T2 construct: strongly proves that a single SRCR domain contains the adherence sites for AgI/II and SspB; made in house; host or cells: Drosophila expression system
T2 sequence (Q9UGM3 102-202 limits assumed): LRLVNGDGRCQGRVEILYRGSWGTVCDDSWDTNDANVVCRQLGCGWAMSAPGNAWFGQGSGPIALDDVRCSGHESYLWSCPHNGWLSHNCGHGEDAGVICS
Put plainly: SPR binding of analytes to immobilized iSRCR1 (CM5 chip, 1:1 Langmuir). Conditions: for direct binding to immobilized iSRCR1 (in words): substance alone over CM5 chip. How it is done:
as §3, §5

Another assay concerns the target T3, SAG (Homo sapiens, UniProt Q9UGM3).
T3 construct: from tissue; host or cells: saliva (purified SAG, gift)
Particulars: from reference [15]; read-out: affinity of interaction with SAG; cited from earlier work.

The next assay addresses T4, iSRCR1 (Deglycosylated) (Homo sapiens, UniProt Q9UGM3).
T4 construct: strongly proves that a single SRCR domain contains the adherence sites for AgI/II and SspB; made in house; host or cells: Drosophila expression system
Put plainly: SPR binding of analytes to on-chip deglycosylated iSRCR1. Particulars: ligand iSRCR1 (Deglycosylated). Here is the method:
as §3, §4, §5

For assay [3], the target named is T5, iSRCR123 (Homo sapiens, UniProt Q9UGM3).
T5 construct: multiple SRCR domains have better adherence capability compared to that of a single SRCR domain; made in house; host or cells: Drosophila expression system
T5 sequence (Q9UGM3 102-463 limits assumed): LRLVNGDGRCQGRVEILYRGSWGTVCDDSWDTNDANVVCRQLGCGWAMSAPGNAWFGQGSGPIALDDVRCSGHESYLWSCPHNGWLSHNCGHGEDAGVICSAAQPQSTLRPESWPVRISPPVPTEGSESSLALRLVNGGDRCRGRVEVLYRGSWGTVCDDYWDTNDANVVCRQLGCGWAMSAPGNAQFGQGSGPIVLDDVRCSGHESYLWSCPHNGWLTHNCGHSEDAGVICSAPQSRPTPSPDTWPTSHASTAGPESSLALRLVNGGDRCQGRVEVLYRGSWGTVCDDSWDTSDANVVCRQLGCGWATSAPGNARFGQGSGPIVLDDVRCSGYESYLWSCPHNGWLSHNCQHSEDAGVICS
Put plainly: SPR binding of analytes to immobilized iSRCR123 (CM5 chip, 1:1 Langmuir). Particulars: for direct binding to immobilized iSRCR123 (in words): substance alone over CM5 chip. How it is done:
as §3, §5

The target of assay [4] is T5, iSRCR123. Put plainly: Competition adherence SPR on immobilized iSRCR123. Type of assay: binding. Conditions: FL injected first. How it is done: (§6) To determine whether AgI/II domains bound to the same site on SRCR domains, competitive binding SPR experiments were conducted in triplicates as previously described where each fragment of AgI/II (FL, A3VP1, or C123) or SspB (FL, A3VP1 or C123) was initially passed over the chip surface immobilized with either iSRCR1, iSRCR123 or SAG for 60 seconds to saturate available binding sites. The response curve of AgI/II or SspB first fragment was recorded, where the maximal RU (RU1) was considered as the base line for the second injection, and thereafter the competing fragment was injected and its response was recorded as RU2. The adherence of the second fragment was then calculated (RU2−RU1) for all SPR competing assay as reported earlier.

For assay [5], the target named is T2, iSRCR1. Put plainly: Competition adherence SPR on immobilized iSRCR1. Conditions: FL injected first. The format is binding. Here is the method: as §6
Assay [6] has as its system S. mutans UA159. Put plainly: Flow cytometric analysis of iSRCR adherence to bacteria. Type of assay: cell-based. Conditions: 10 μM. Here is the method: (§7) S. mutans UA159 and S. gordonii DL1 cells were grown overnight in TSY broth media at 37° C. and washed thoroughly with FACS buffer (20 mM HEPES pH 7.4, 150 mM NaCl and 5% non-fat dry milk) to reduce non-specific binding. Subsequently, 10 μM of iSRCR1 or iSRCR123 were added to 100 μl of cells (1×10^7 cells/ml) in binding buffer (FACS buffer+2.5 mM CaCl2) and incubated for 60 min at 37° C. The cells were later washed thoroughly with binding buffer to remove unbound iSRCRs. Subsequently, Anti-His tag Alexafluor 488 antibody (1:50 dilution) (EMD Millipore, Inc) that adheres to the His tag present on SRCRs was added to the cells and incubated for 30 min, washed three times and resuspended in 200 μl of binding buffer. Samples without iSRCRs served as control. Samples were then assayed using the FACScan machine (BD Biosciences) at the Analytical and Preparative Cytometry Facility (APCF) at UAB, and data obtained was analyzed using FlowJo 7.2.4 software.

The subject of assay [7] is S. gordonii DL1. The description is as above. Type of assay: cell-based. Conditions: 10 μM, compared with S. mutans. Here is the method:
as §7

The subject of assay [8] is S. mutans UA159. Put plainly: Aggregation assay (OD700 over 60 min). Type of assay: cell-based. Conditions: iSRCR 10 μM or SAG, 6 mM CaCl2. Here is the method: (§8) Aggregation assays were performed as described earlier with slight modifications. Briefly, S. mutans UA159 and S. gordonii DL1 cells were grown in TSY broth media overnight at 37° C. in the presence of 5% CO2. The bacteria were centrifuged at 5000×g and washed with a buffer containing 20 mM HEPES pH 7.4, 150 mM NaCl and re-suspended to an approximate OD700 of 1. The bacterial suspension (900 μl) was mixed with 100 μl of SAG or iSRCR1 (10 μM) or iSRCR123 ([…]) or commercially synthesized (Think Peptides, Inc) SRCRP2 peptide with fluorescein amidite (FAM) at the carboxyl end ([…]-[FAM]) (SEQ ID NO:9, at both 400 μg/ml and 1 mg/ml) in the presence of 6 mM CaCl2 and aggregation was measured by recording OD700over 60 min at 5 min intervals, where the buffer alone was used as control. All experiments were carried out at least five times, and the results were analyzed with One-way ANOVA. Post-hoc testing where *, P<0.05 was considered statistically significant and results were presented as the percentage of cells aggregated.

The test system of assay [9] is S. gordonii DL1. Put plainly: Aggregation assay (OD700 over 60 min). Type of assay: cell-based. Particulars: iSRCR 10 μM or SAG, 6 mM CaCl2. How it is done:
as §8

Assay [10] deals with S. mutans UA159. Put plainly: Confocal microscopy of iSRCR adherence to bacteria. Particulars: 10 μM. The format is cell-based. Here is the method: S. mutans UA159 and S. gordonii DL1 were grown overnight in TSY (30 g/L of Trypticase soy broth and 0.5 g/L yeast extract, pH 7.2) media on an eight-well Lab Tek Chamber slide system (Sigma). The cells were fixed with 3% paraformaldehyde, washed with binding buffer (20 mM HEPES pH 7.4, 150 mM NaCl and 2.5 mM CaCl2), and thereafter iSRCR1 or iSRCR123 (10 μM) were added to the cells and incubated for 60 min. The unbound SRCRs were removed by repeated washing using the binding buffer. Subsequently, Alexa fluor 488 conjugated Anti-His-tag antibody (EMD Millipore, Inc) (1:50 dilution) that can bind to the His Tag on SRCRs was added. After 60 min incubation the unbound antibody was washed away thoroughly using binding buffer, and the chamber walls were gently removed. Cover slips were then mounted with 15 μl of fluoromount-G with DAPI (Southern Biotech Inc) to stain bacterial nuclei and were sealed until ready to be imaged. The experiment without SRCRs served as control. All slides were imaged using Leica SP1 UV Confocal Laser Scanning Microscope and Zeiss LSM 710 Confocal Laser Scanning Microscope at the UAB-High resolution imaging facility (UAB-HRIF).

AgI/II VheI (S. mutans), sequence (P23504 464-840 limits assumed): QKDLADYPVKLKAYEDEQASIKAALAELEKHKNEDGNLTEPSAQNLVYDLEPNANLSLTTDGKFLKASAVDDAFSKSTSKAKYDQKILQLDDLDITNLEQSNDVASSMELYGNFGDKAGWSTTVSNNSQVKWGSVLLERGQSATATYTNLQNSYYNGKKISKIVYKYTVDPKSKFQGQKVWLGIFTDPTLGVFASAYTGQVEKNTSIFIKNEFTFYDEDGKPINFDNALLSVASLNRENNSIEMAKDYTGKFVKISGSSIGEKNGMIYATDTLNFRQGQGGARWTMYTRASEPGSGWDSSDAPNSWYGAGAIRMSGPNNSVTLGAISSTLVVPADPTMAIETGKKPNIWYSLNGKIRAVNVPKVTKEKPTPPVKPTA
T4 sequence (Q9UGM3 102-202): as the sequence (Q9UGM3 102-202 limits assumed) above
T1 sequence (Q9UGM3 102-463 limits assumed): as the sequence (Q9UGM3 102-463 limits assumed) above
T3 sequence (Q9UGM3 20-2413): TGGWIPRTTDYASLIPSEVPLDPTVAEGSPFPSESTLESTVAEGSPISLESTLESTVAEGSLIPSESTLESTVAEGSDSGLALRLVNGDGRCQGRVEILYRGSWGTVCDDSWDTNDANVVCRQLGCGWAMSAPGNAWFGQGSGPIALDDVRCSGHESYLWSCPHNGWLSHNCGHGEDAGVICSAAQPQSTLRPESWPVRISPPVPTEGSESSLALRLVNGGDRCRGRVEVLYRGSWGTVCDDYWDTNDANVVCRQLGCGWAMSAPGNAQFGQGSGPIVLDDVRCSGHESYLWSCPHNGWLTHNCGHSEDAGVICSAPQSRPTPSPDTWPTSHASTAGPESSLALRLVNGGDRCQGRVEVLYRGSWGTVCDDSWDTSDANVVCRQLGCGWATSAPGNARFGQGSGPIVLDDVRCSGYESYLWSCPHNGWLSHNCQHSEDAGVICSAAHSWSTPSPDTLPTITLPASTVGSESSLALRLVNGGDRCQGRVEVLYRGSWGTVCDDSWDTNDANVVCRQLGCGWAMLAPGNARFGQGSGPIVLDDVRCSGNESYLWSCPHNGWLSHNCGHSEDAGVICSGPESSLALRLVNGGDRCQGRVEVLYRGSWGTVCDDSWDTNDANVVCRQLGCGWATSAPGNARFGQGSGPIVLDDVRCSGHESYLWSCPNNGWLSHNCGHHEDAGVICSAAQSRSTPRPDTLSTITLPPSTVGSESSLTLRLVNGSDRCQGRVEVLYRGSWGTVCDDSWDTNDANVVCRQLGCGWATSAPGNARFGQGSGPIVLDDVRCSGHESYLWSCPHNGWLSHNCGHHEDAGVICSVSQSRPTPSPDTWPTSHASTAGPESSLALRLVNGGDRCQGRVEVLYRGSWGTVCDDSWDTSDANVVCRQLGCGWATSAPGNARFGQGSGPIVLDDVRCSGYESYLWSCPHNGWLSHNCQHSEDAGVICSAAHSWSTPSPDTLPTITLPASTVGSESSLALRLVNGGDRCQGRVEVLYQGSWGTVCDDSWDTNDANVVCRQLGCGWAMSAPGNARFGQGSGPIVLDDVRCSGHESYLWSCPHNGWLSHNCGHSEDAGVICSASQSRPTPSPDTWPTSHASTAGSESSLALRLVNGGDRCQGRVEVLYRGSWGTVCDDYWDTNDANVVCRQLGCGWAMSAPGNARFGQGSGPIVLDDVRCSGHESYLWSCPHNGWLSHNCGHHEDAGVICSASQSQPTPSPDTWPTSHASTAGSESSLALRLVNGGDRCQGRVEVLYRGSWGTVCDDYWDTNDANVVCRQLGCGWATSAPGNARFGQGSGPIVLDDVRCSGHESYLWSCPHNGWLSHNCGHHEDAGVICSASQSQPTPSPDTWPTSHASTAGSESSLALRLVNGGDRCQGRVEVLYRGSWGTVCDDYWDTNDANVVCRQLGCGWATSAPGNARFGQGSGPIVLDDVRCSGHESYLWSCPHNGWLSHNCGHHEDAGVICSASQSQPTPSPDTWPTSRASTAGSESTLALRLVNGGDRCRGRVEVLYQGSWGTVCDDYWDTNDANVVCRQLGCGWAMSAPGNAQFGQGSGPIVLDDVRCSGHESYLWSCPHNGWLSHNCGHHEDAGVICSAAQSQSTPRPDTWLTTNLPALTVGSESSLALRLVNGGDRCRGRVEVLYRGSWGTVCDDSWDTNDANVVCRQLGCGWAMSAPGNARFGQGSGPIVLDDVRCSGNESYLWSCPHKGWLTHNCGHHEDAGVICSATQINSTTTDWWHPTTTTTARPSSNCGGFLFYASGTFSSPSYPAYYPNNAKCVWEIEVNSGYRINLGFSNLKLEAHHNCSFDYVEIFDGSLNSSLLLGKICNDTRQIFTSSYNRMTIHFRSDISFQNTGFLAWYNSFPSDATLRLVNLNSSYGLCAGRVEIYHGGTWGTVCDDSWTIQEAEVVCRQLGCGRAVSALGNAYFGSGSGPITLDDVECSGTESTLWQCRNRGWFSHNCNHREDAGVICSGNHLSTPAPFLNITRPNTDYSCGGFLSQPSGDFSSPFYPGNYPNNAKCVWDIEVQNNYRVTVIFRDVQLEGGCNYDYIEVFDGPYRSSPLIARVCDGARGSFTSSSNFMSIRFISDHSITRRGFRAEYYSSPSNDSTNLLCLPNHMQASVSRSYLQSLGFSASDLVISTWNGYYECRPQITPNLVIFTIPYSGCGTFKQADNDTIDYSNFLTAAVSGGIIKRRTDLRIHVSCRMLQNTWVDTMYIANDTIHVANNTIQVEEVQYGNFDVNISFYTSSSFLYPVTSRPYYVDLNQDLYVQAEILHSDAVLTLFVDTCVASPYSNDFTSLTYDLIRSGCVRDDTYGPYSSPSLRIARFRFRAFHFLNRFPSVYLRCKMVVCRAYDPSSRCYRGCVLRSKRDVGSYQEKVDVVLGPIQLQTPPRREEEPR

As for ETNDANVVARQL [SRCR peptide], in the assay with AgI/II VheI (S. mutans), the KA was 1.56e+08 M⁻¹, the Kd worked out at 6.42 nM, the Rmax amounted to 43.3 Ru and the ka is reported as 1.08 × 10^7 1/ms. This substance came in with a kd on AgI/II VheI (S. mutans) of 0.696 s⁻¹. Besides, in the assay with GbpC (S. mutans), the KA was 2.57e+08 M⁻¹, the Kd is 3.89 nM, the Rmax is 232 Ru and the ka is 1.47 × 10^7 1/ms. The kd at GbpC (S. mutans) turned out to be 0.0573 s⁻¹. Moreover, in the assay with SspB VheI (S. gordonii), the KA is 1.42e+08 M⁻¹, the Kd is 7.02 nM, the Rmax came out at 110 Ru and the ka is given as 4.44 × 10^6 1/ms. Also, the kd on SspB VheI (S. gordonii) stood at 0.0312 s⁻¹.

As to “FL^AgI/II: S. mutans AgI/II full length construct (167.5 kDa)”, the KA in assay [1] turned out to be 6.82e+06 M⁻¹; in the assay with iSRCR1 [2] (ligand iSRCR1), 1.31e+08 M⁻¹; with iSRCR1 (Deglycosylated), 865000 M⁻¹; with iSRCR123 [3] (ligand iSRCR123), 1.34e+08 M⁻¹. For the same substance, the Kd in assay [1] was 147 nM; with iSRCR1 [2] (ligand iSRCR1), 7.69 nM; with SAG, 33.3 nM; in the assay with iSRCR1 (Deglycosylated) it was 1160 nM; with iSRCR123 [3] (ligand iSRCR123) it was 7.46 nM. Further, the ka in [1] worked out at 3160 M⁻¹ s⁻¹; with iSRCR1 [2] (ligand iSRCR1), 127000 M⁻¹ s⁻¹; with iSRCR1 (Deglycosylated), 49700 M⁻¹ s⁻¹; with iSRCR123 [3] (ligand iSRCR123), 99700 M⁻¹ s⁻¹. Moreover, the kd in assay [1] came to 0.000464 s⁻¹; in the assay with iSRCR1 [2] (ligand iSRCR1), 0.000976 s⁻¹; with iSRCR1 (Deglycosylated) it was 0.0575 s⁻¹; with iSRCR123 [3] (ligand iSRCR123) it was 0.000743 s⁻¹. The “quantity of protein that adhered to iSRCR123, higher than iSRCR1” value in the assay with iSRCR123 [3] (analyte at 2 μM, iSRCR123 versus iSRCR1) is reported as 16%. For the same substance, the “inhibition of binding of the A3VP1 fragment of the same protein” value amounted to 44% with iSRCR123 [4] and 46% in the assay with iSRCR1 [5]. The “inhibition of binding of the C123 fragment of the same protein” value amounted to 25% with iSRCR123 [4] and 36% in the assay with iSRCR1 [5].

For Lysozyme [reference compound], on iSRCR1 [2], the “direct binding to immobilized iSRCR1 (in words)” value was “binding”. At iSRCR123 [3], the “direct binding to immobilized iSRCR123 (in words)” value was “binding”.

In the case of “iSRCR123: recombinant construct of three tandem SRCR domains of Gp340 (43 kDa)”, the “increase in fluorescence intensity compared to the control” value with S. mutans UA159 [6] was about 100 fold. In addition, the “adherence by FACS (in words)” value in the assay on S. gordonii DL1 [7] is listed as “lower adherence”. In addition, the “percentage of cells aggregated” value in the assay on S. mutans UA159 [8] was 69%; with S. gordonii DL1 [9] it was 48%. In addition, the “binding to cells by confocal microscopy (in words)” value in the assay on S. mutans UA159 [10] is recorded as “binding”.

In the case of thaumatin [reference compound], on iSRCR1 [2], the “direct binding to immobilized iSRCR1 (in words)” value was “not”. For the same substance, the “direct binding to immobilized iSRCR123 (in words)” value on iSRCR123 [3] is given as “not”.
